The record followed here is US5068247A, “2-aminopentanoic acid compounds and their use as immunosuppressants” (priority 1989, dated 1991).

The inhibition is how much of the control response was suppressed. Low readings indicate a response near the control, high ones a response far below the control.

The structures appear in SMILES notation.

For this assay, the system named is IL-4 response of mouse thymocytes. In words: suppression of the IL-4 response of mouse thymocytes. The following applies: for inhibition at 0.0001 µg/mL / inhibition at 0.001 µg/mL / inhibition at 0.01 µg/mL / inhibition at 0.1 µg/mL / inhibition at 1 µg/mL: Mus musculus, Thymocyte, 72 h. In kind it is cell-based. The procedure:
The thymus was resected from 6-week-old male C3H/HeN mice, and a single cell suspension was prepared using the serum-free RPMI1640 culture medium. After washing three times, the cell suspension was adjusted to a concentration of 1.5×10^7 cells/ml in the RPMI1640 culture medium supplemented with 10^-4 M 2-mercaptoethanol and 20% FCS. […] After culturing the suspension for further 18 hours, the cells were harvested by a cell harvester, and the radioactivity incorporated into the cells was measured by a liquid scintillation counter, which was used as an index of IL-1, IL-2 or IL-4 response. The suppression of IL-1, IL-2 or IL-4 response was evaluated by calculating the percent suppression by the following formula. [formula]

Regarding `CCCCCCCCCCCCC/C=C/C[C@@H](O)[C@H](O)[C@@](N)(CO)C(=O)O` [Example 5], the 3H-thymidine uptake is given as 3190 cpm (0.0001 μg/ml, IL-4 50 U/ml); 45895 cpm (0.0001 μg/ml, IL-4 250 U/ml); 2025 cpm (0.001 μg/ml, IL-4 50 U/ml); 39150 cpm (0.001 μg/ml, IL-4 250 U/ml); 1385 cpm (0.01 μg/ml, IL-4 50 U/ml); 33515 cpm (0.01 μg/ml, IL-4 250 U/ml). Besides, the 3H-thymidine uptake by setting is: (0.1 μg/ml, IL-4 50 U/ml) 815 cpm; (0.1 μg/ml, IL-4 250 U/ml) 24655 cpm; (1 μg/ml, IL-4 50 U/ml) 885 cpm; (1 μg/ml, IL-4 250 U/ml) 21250 cpm. Also, the inhibition at 0.0001 µg/mL worked out at 0% (0.0001 μg/ml, IL-4 50 U/ml) and 13.1% (0.0001 μg/ml, IL-4 250 U/ml). In addition, the inhibition at 0.001 µg/mL by setting is: (0.001 μg/ml, IL-4 50 U/ml) 8%; (0.001 μg/ml, IL-4 250 U/ml) 26%. Besides, the inhibition at 0.01 µg/mL (0.01 μg/ml, IL-4 50 U/ml) is 40.6% and the inhibition at 0.01 µg/mL (0.01 μg/ml, IL-4 250 U/ml) was 36.8%. For the same compound, the inhibition at 0.1 µg/mL stood at 69.7% (0.1 μg/ml, IL-4 50 U/ml) and 46.3% (0.1 μg/ml, IL-4 250 U/ml). Also, the inhibition at 1 µg/mL amounted to 66.2% (1 μg/ml, IL-4 50 U/ml) and 60.2% (1 μg/ml, IL-4 250 U/ml).
